Source: paper PMC4621027, “Hydroxyethylamine Based Phthalimides as New Class of Plasmepsin Hits: Design, Synthesis and Antimalarial Evaluation” (PLoS ONE, 2015)
“Also recorded” adds a separate entry of the source.

Tests used:
[1] = tested on: MCF-7 cell line; assay: MTT-colorimetric cytotoxicity assay; format: cell-based; conditions: 100, 25 and 6.25 μg mL^-1
Experimental: Phthalimides were serially diluted in DMSO in a final concentration of 100, 25 and 6.25 μg mL^-1 and evaluated for their % cytotoxicity by using MTT-colorimetric assay on MCF-7 cell line. Cell lines were maintained in RPMI-1640 (Hi-Media, Mumbai) medium supplemented with heat inactivated FCS (10% v/v) and 100 U/mL of streptomycin and were cultured in a humidified 5% CO2 atmosphere at 37°C. 100 μL (~2×10^5) of cells were seeded into wells (per well) on a 96-well plate (Nunc, Maxi Sorp) and incubated for 16 h for adherence. After 16 h, media was aspirated from the wells and the cells were washed with RPMI-1640 without FCS. 75 μL of each compound and control was added to separate wells containing cell lines and incubated at 37°C in humidified 5% CO2 atmosphere for 4 h. After 4 h, media containing the compounds was replaced with 200 μL of normal RPMI-1640 and cells were further incubated for 48 h under same conditions. After 48 h media was replaced by 200 μL of MTT (3-(4, 5-dimethylthiazol-2-yl)-2, 5-diphenyltetrazolium bromide, 0.5 mg/mL of RPMI-1640) and further incubated for 2 h. The formazan crystals were formed and suspended in 100 μL iso-propanol containing 0.06 M HCl and 0.5% SDS. Aliquots were drawn from each well and colour intensity was measured spectrophotometrically in an ELISA plate reader (Biotek, ELx800) at 540 nm. Untreated cells were taken as control with 100% viability and cells without addition of MTT were used as blank. The relative cell viability (%) compared to control cells was calculated by [abs] sample/ [abs] control × 100.

[2] = tested on: P. falciparum 3D7; assay: SYBR green I-based fluorescence parasite growth assay, CQ sensitive strain; format: cell-based, Plasmodium falciparum; conditions: Plasmodium falciparum; CQ sensitive strain 3D7; 48 h incubation; read-out: IC50 values ± SE, growth of P. falciparum (3D7)
Experimental: (§1) For compound screening, SYBR green I-based fluorescence assay was setup as described in literature. Sorbitol synchronized parasites were incubated under normal culture conditions at 2% hematocrit and 1% parasitemia in the absence or presence of increasing concentrations of the compounds. Chloroquine (CQ) was used as positive control, while 0.4% DMSO was used as the negative control.
(§2) We have studied the antimalarial effect of all the listed molecules in […] culture conditions in order to identify a putative lead structure for pharmacological applications.

[3] = tested on: human erythrocytes; assay: In vitro hemolytic activity; format: cell-based; conditions: 3.125 to 100 μg/mL, 37°C, 1 h
Experimental: In vitro hemolytic activity of all synthesized compounds was performed as per reported protocol with slight modifications. In brief, human erythrocytes were collected from Rotary Blood Bank (New Delhi, India) and suspended in phosphate buffer saline (PBS). The suspension (2% hemotocrit) was incubated with different concentrations (3.125 to 100 μg/mL) of the entire compound series at 37°C for 1 h. After 1 h, erythrocytes were pelleted at 3000 g for 10 min (Remi, R-8C/BL) at 4°C. The supernatant was collected and OD450 was determined spectrophotometrically (Biotek, ELx800 UV spectrophotometer) using PBS as a negative control and Triton X-100 for completely lysing the cells. The percent hemolysis was calculated using the following formula: Percent hemolysis = […]. The percent hemolysis was plotted against concentration of compounds for determining the dose cytotoxic to erythrocytes.

[4] = tested on: CQ resistant strain (7GB) of P. falciparum; assay: Antiplasmodial activity against CQ resistant strain; format: cell-based; conditions: Plasmodium falciparum; values in brackets; 48 h incubation; read-out: IC50 values ± SE, CQ resistant strain (7GB) (converted)
Experimental: as §1, §2

[5] = tested on: P. falciparum developmental stages (asexual); assay: Effect on P. falciparum developmental stages, Giemsa-stained smears; format: cell-based, Plasmodium falciparum; conditions: 5 μM
Experimental: Further, in order to assess the effect of potent molecule 5e on the parasite developmental stages (asexual), we treated tightly synchronized ring-stage parasite cultures with 5e at 5 μM concentration and counted the parasites at different developmental stages (rings, trophozoites and schizonts) in Giemsa-stained smears at three time points (36, 44, and 52 h after treatment). The control (untreated) parasite progressed through the first cell cycle (0–48 h), increased in size and density, developed into trophozoites and schizonts and subsequently formed viable merozoites. These merozoites were able to invade fresh RBCs and form new ring-stage parasites. (Fig 4).

[6] = target: T1, plasmepsin 4 (Plasmodium falciparum, UniProt Q8IM16); assay: Inhibition of plasmepsin 4, chromogenic substrate cleavage assay; format: biochemical; conditions: tested at 10 to 50 μM
T1 construct: preincubated at the assay pH for 3 minutes to allow conversion from the proenzyme to the mature enzyme form; made in house
T1 sequence (Q8IM16 122-449): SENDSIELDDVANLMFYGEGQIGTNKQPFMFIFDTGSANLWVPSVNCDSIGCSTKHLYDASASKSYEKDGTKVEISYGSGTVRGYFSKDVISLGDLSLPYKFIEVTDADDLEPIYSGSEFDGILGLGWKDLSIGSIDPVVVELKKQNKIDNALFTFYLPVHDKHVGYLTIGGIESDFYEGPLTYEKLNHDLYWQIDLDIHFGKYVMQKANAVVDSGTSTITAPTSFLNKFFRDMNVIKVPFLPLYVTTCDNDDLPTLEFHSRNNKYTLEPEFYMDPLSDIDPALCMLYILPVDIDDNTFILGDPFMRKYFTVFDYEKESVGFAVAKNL
Experimental: (§3) Synthetic compounds were dissolved in DMSO to make stock solutions at concentrations around 100 μM. Dilutions from these stocks were made to obtain solutions to use for studying inhibition of the plasmepsins 2 and 4 from P. falciparum. Assays of enzymatic activity were typically done using 50 micromolar substrate and 50 nanomolar enzyme at pH 4.5. The protein samples were preincubated at the assay pH for 3 minutes to allow conversion from the proenzyme to the mature enzyme form, then immediately mixed with inhibitor solutions and incubated for a further 5 minutes to permit the enzyme-inhibitor complex to form. Following this, the samples were mixed with samples of the substrate to yield a 50 μM substrate concentration in the final assay solution and immediately placed in a recording spectrophotometer to follow the reaction. The cleavage of the chromogenic substrate yields a shift in absorbance that can be quantified by the decrease in absorbance at 300 nm. Compounds were mixed with the enzymes at concentrations ranging from 10 to 50 μM range and the effect on enzyme activity studied in duplicate assays.
(§4) A second inhibitor concentration was chosen that would yield approximately 30–35% inhibition and a third inhibitor concentration was chosen to yield approximately 65–70% inhibition. The three resulting curves of initial velocity versus substrate concentration were fit simultaneously to the competitive inhibition scheme; this yields values of Vmax, Km, and Ki.
(§5) Plasmepsins, a family of aspartic proteases of malaria parasite, are known to participate in a wide variety of cellular processes essential for parasite survival. […] Similarly, plasmepsin 4 from P. falciparum can be prepared and activated. Catalytic activity of the plasmepsins can be studied by following the change in absorbance at 300 nm as cleavage occur between a Phe and a nitroPhe in the synthetic substrate, Lys-Pro-Ile-Glu-Phe-NO2Phe-Arg-Leu. The compounds listed in Tables 1, 2 and 3 were assayed for inhibition by preincubating with differnt concentrations of the compound with equal aliquots of either plasmepsin 2 or 4 followed by mixing with the assay substrate.

[7] = target: T2, plasmepsin 2 (Plasmodium falciparum, UniProt P46925); assay: Inhibition of plasmepsin 2, chromogenic substrate cleavage assay; format: biochemical; conditions: tested at 10 to 50 μM
T2 construct: preincubated at the assay pH for 3 minutes to allow conversion from the proenzyme to the mature enzyme form; made in house
T2 sequence (P46925 125-453): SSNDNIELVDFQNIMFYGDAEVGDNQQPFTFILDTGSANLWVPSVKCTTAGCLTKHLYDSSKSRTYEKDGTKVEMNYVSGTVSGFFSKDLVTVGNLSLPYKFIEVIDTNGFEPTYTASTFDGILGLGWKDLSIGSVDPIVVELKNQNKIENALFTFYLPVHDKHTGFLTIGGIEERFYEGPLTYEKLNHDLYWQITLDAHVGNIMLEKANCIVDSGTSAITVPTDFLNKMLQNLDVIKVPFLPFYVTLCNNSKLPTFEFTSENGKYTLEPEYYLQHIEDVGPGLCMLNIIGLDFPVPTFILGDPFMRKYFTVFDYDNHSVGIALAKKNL
Experimental: as §3, §4, §5

SMILES	cytotoxic effect on MCF7 cell line (in words) [1]	IC50 [2] [nM]	hemolysis of human erythrocytes (in words) [3]	IC50 [4] [µM]	total parasitemia compared with the control set ([5]; at 52 h)	effect on parasite developmental stages ([5]; synchronized ring-stage cultures, 36, 44 and 52 h after treatment)	inhibition of plasmepsin 4 (in words) [6]	inhibition of plasmepsin 2 (in words) [7]	melting point [°C]
CC(C)(C)OC(=O)N[C@H](Cc1ccccc1)[C@@H](O)CN1CCC(N2CCCCC2)CC1 [Compound 5e]	low cytotoxic effect; also recorded: less toxic	1160 ± 40	lower hemolysis	2.99	lower total parasitemia	developmental arrest in the transition from early to late schizont	did not inhibit	did not inhibit	–
CC(C)[C@@H](C(=O)N[C@H](Cc1ccccc1)[C@@H](O)CN1CCN(Cc2ccc(Br)cc2)CC1)N1C(=O)c2ccccc2C1=O [Compound 6o]	low cytotoxic effect	1250 ± 80	–	3.01	–	–	–	–	–
O=C(N[C@H](Cc1ccccc1)[C@@H](O)CN1CCN(Cc2ccc(F)cc2)CC1)[C@H](Cc1ccccc1)N1C(=O)c2ccccc2C1=O [Compound 6j]	low cytotoxic effect	1330 ± 40	lower hemolysis	3.6	–	–	–	–	121 to 123
